Assay results published in article PMC4073285, “Exploring the molecular mechanisms of electron shuttling across the microbe/metal space” (Frontiers in Microbiology, 2014).

Legend:
[1] = target: T1, UndA (Shewanella sp. HRCR_06, UniProt F8UWD6); test: 1H NMR titration (heme methyl shifts); format: binding; details: oxidized protein; 20 mM potassium phosphate pH 7.6, 100 mM KCl, 2H2O, 25 °C
T1 construct: recombinant soluble undecaheme cytochrome from E. coli JM109(DE3) periplasm with pEC86; stop codon after the gene removes V5 and His6 tags; C-terminus encoded by primer GVDKVHPVKY
T1 sequence (F8UWD6 entry or part of it): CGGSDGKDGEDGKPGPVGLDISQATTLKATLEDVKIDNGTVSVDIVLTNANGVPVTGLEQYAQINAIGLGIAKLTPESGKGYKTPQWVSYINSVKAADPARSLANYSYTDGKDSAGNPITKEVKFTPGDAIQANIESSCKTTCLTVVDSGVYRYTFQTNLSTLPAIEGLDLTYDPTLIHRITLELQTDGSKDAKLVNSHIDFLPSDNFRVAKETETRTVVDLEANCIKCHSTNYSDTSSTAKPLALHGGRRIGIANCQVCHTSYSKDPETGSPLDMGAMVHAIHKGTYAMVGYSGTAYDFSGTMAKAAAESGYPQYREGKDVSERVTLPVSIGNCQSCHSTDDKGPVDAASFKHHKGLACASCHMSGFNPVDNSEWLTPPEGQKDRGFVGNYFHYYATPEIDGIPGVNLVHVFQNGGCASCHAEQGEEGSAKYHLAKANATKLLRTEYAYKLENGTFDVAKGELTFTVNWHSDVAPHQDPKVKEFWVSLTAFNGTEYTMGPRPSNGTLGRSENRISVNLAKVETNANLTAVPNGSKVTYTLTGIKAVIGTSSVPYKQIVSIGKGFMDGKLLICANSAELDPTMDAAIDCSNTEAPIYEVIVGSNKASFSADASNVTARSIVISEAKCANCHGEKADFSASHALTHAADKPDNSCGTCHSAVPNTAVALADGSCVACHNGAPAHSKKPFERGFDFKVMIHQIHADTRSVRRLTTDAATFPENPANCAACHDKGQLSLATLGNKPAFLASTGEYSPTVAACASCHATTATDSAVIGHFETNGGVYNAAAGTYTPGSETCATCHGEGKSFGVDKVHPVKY

[2] = target: T2, OmcA (Shewanella oneidensis, UniProt Q8EG33); test: 1H NMR titration (heme methyl shifts); format: binding; details: oxidized protein; 20 mM potassium phosphate pH 7.6, 100 mM KCl, 2H2O, 25 °C
T2 construct: recombinant soluble decaheme cytochrome expressed in S. oneidensis MR-1 from pBAD202/D-TOPO; stop codon after the gene removes V5 and His6 tags; C-terminus encoded by primer ...AIDGSTR N not altered (ends MEAHGN)
T2 sequence (Q8EG33 entry or part of it): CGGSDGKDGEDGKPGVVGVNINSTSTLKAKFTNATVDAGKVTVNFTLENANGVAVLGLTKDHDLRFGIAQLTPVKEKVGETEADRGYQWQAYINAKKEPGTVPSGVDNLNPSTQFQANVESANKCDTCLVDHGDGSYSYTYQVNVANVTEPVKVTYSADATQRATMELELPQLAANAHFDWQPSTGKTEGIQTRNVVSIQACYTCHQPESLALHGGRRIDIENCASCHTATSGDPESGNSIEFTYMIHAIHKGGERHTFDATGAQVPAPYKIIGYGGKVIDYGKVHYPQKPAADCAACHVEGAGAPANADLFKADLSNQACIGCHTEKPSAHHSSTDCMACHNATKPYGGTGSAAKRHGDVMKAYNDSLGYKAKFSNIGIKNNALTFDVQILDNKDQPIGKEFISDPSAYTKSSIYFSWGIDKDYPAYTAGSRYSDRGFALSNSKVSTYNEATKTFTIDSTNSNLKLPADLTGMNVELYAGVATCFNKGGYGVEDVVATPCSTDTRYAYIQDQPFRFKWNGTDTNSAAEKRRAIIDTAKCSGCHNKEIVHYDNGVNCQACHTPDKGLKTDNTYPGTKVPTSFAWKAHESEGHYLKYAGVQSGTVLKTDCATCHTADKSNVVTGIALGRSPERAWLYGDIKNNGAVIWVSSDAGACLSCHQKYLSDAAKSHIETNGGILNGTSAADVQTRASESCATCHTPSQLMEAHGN

[3] = target: T3, MtrC (Shewanella oneidensis, UniProt Q8EG34); test: 1H NMR titration (heme methyl shifts); format: binding; details: oxidized protein; 20 mM potassium phosphate pH 7.6, 100 mM KCl, 2H2O, 25 °C
T3 construct: recombinant soluble decaheme cytochrome from E. coli JM109(DE3) periplasm with pEC86; stop codon after the gene removes V5 and His6 tags; C-terminus encoded by primer HTKVKM
T3 sequence (Q8EG34 entry or part of it): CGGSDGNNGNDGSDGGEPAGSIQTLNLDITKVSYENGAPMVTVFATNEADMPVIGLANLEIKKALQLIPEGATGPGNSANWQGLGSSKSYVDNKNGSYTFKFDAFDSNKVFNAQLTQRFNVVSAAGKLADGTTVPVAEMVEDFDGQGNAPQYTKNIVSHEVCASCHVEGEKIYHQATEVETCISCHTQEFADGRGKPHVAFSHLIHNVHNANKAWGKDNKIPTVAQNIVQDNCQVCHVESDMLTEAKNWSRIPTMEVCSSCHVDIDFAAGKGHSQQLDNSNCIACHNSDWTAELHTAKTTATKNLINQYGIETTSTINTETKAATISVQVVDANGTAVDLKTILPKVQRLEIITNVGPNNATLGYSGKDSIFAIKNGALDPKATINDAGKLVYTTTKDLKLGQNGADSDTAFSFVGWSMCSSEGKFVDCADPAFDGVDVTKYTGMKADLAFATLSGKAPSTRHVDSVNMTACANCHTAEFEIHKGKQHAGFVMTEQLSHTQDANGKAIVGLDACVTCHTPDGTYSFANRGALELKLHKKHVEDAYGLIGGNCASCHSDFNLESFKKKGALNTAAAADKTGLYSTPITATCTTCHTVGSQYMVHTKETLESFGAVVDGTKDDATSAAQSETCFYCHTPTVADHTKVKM

[4] = target: T3, MtrC; test: […] NMR titration; format: binding; details: read-out: βd
[5] = target: T2, OmcA; test: […] NMR titration; format: binding; details: read-out: βd
[6] = target: T4, MtrF (Shewanella oneidensis, UniProt Q8EG32); test: stopped-flow oxidation of reduced cytochrome at […] nm; format: biochemical; details: electron acceptor; 11 μM PMS, 0.31 μM protein, pH 7.6, 25 °C, anaerobic
T4 construct: recombinant soluble decaheme cytochrome expressed in S. oneidensis MR-1; stop codon after the gene removes V5 and His6 tags
T4 sequence (Q8EG32 24-639): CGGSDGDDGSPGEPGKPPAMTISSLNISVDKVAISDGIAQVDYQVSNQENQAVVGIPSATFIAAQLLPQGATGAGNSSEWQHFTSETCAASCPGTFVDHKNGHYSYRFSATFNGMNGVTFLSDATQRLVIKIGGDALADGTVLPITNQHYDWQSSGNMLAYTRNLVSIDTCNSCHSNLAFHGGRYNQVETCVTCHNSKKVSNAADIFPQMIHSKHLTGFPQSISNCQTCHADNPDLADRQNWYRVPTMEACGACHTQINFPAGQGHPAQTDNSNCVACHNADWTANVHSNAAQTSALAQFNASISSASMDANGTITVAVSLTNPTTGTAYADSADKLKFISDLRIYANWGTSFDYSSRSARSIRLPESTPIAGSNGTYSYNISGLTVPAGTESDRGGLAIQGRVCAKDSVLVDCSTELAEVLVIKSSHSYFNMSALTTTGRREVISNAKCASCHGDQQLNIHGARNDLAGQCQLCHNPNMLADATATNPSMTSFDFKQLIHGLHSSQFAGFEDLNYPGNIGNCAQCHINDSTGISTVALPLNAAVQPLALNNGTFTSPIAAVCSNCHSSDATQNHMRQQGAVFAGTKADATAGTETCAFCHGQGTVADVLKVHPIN

Row | SMILES | 1H NMR titration (heme methyl shifts) [1] | 1H NMR titration (heme methyl shifts) [2] | 1H NMR titration (heme methyl shifts) [3] | Kd [4] [µM] | Kd [5] [µM] | stopped-flow oxidation of reduced cytochrome at 552 nm [6]
1 | O=C1c2ccc(S(=O)(=O)O)cc2C(=O)c2ccc(S(=O)(=O)O)cc21 [AQDS, Anthraquinone 2,6-disulfonate] | the addition of AQDS promoted noticeable spectral changes in OmcA, MtrC, and UndA | the addition of AQDS promoted noticeable spectral changes in OmcA, MtrC, and UndA | the addition of AQDS promoted noticeable spectral changes in OmcA, MtrC, and UndA |  |  | 
2 | Cc1cc2nc3c(=O)[nH]c(=O)nc-3n(C[C@H](O)[C@H](O)[C@H](O)COP(=O)(O)O)c2cc1C [FMN, Flavin mononucleotide] |  |  |  | 255 | 29 | 
3 | C[n+]1c2ccccc2nc2ccccc21 [PMS, Phenazine methosulfate] |  | RF, FMN, and PMS, only promoted significant changes in the heme signals of OmcA | only promoted significant changes in the heme signals of OmcA and MtrC |  |  | PMS oxidized all the cytochromes at a rate too fast to be measured
4 | Cc1cc2nc3c(=O)[nH]c(=O)nc-3n(C[C@H](O)[C@H](O)[C@H](O)CO)c2cc1C [RF, Riboflavin] |  | RF, FMN, and PMS, only promoted significant changes in the heme signals of OmcA | only promoted significant changes in the heme signals of OmcA and MtrC |  |  | 
